Experiments:
[1] = tested on: Salmonella typhimurium tester strain TA98; assay: Modified Ames test with Aroclor 1254-induced rat liver S9 on DMSO extract (specific mutagenic activity, revertants); assay type: cell-based
Description: (§1) The hydrocarbon mixture to be assayed is extracted with an equal volume of DMSO five times, and the extracts are combined. The combined extract, which serves as surrogate for the hydrocarbon itself, is assayed using Salmonella typhimurium tester strain TA98 together with Aroclor 1254-induced rat liver S9. Prior to use, the rat liver S9 homogenate, obtained from Litton Bionetics, Kensington, Md., was stored at -80° C., and thawed on ice for 4 hours prior to use.
The assay is conducted by first introducing into a series of sterile capped culture tubes up to about eight different doses of the combined extract. The doses, usually in the range of 10 to 75 microliters, are selected to delimit the linear portion of the doseresponse curve. Duplicate or triplicate tubes are prepared for each dose level. […] Plates are incubated inverted at 37° C. in the dark and revertant colonies are counted 48 hours later.
Spontaneous reversion rates (47±8.5) and negative (solvent) control rates (47±8.5) were determined for all tests. […]
Specific mutagenic activity is assessed from the slope of the linear portion of the dose response curve that is obtained, and may be reported as revertants per μl of extract. […]

[2] = tested on: Salmonella typhimurium tester strain TA98; assay: Modified Ames test with induced hamster liver S9 (TA98 revertants/plate); assay type: cell-based; settings: 2 ug per plate
Description: as §1
The assay is conducted by first introducing into a series of sterile capped culture tubes up to about eight different doses of the combined extract. The doses, usually in the range of 10 to 75 microliters, are selected to delimit the linear portion of the doseresponse curve. Duplicate or triplicate tubes are prepared for each dose level. This is followed by 0.5 ml S9 mix containing 400 μl S9, 8 μM MgCl2, 33 μM KCl, 5 μM glucose-6-phosphate, 4 μM NADP and 100 μM sodium phosphate (pH 7.4), and 0.1 ml Salmonella typhimurium broth culture (1×10^9 cells/ml). The cultures are incubated at 37° C. with agitation for 20 minutes, following which top agar (0.6% agar, 0.5% NaCl, 0.5 mM histidine-biotin) is added. The tubes are vortexed to ensure adequate mixing and the contents overlaid on 30 ml Vogel-Bonner minimal media plates. Plates are incubated inverted at 37° C. in the dark and revertant colonies are counted 48 hours later. […]

In the case of `Nc1ccc2cc3ccccc3cc2c1` [2-aminoanthracene], the “TA98 Revertants/Plate, 400 ul Rat S9” value ([1]; 2 ug per plate, 400 ul rat S9) is reported as 313 Revertants/Plate, the “revertants (positive control)” value ([1]; 2 μg/plate, TA98, rat liver S9) is reported as 441±285 revertants and the “TA98 Revertants/Plate, 400 ul Hamster S9” value ([2]; 400 ul hamster S9) is reported as 639 Revertants/Plate. For the same compound, the “TA98 Revertants/Plate, 400 ul Hamster S9 + 2xNADP” value ([2]; 400 ul hamster S9 + 2xNADP (8 mM)) was 977 Revertants/Plate.
